From ChEMBL document CHEMBL3526130, “An evaluation of using rat-derived single-dose neuropharmacokinetic parameters to project accurately large animal unbound brain drug concentrations” (Drug Metab Dispos, 2012) come the findings set out here.

Data set [1] is described as follows: AUC(0 to 1 hr) in cynomolgus monkey brain at 0.1 mg/kg, sc by LC-MS/MS analysis. The arrangement: time < 1 hr, dose 0.1 mg/kg, route subcutaneous. It is filed as ADME, organism-based, Macaca fascicularis.
The nature of data set [2]: AUC(0 to 2 hrs) in Beagle dog brain at 0.1 mg/kg, sc by LC-MS/MS analysis. It is filed as ADME, organism-based, Canis lupus familiaris. Set-up: time < 2 hr, dose 0.1 mg/kg, route subcutaneous.
A short description of data set [3]: AUC(0 to infinity) in Sprague-Dawley rat plasma at 1 mg/kg, sc by LC-MS/MS analysis. It is filed as ADME, organism-based. The arrangement: time infinity, dose 1 mg/kg, route subcutaneous.
The nature of data set [4]: Ratio of drug level in brain to plasma in cynomolgus monkey at 0.1 mg/kg, sc by LC-MS/MS analysis. It is filed as ADME, organism-based, Macaca fascicularis. Set-up: dose 0.1 mg/kg, route subcutaneous. As to conditions: brain and plasma, read-out: BPR.
Data set [5] can be described thus: AUC(0 to 1 hr) in cynomolgus monkey plasma at 0.1 mg/kg, sc by LC-MS/MS analysis. It is filed as ADME, organism-based, Macaca fascicularis. Set-up: time < 1 hr, dose 0.1 mg/kg, route subcutaneous.
Data set [6] can be described thus: Ratio of unbound drug level in brain to plasma in Beagle dog at 0.1 mg/kg, sc by LC-MS/MS analysis. It is filed as ADME, organism-based, Canis lupus familiaris. Set-up: dose 0.1 mg/kg, route subcutaneous. As to conditions: brain and plasma.
Data set [7] can be described thus: AUC(0 to infinity) in Sprague-Dawley rat brain at 1 mg/kg, sc by LC-MS/MS analysis. It is filed as ADME, organism-based. The arrangement: time infinity, dose 1 mg/kg, route subcutaneous.
Data set [8] is described as follows: Ratio of unbound drug level in brain to plasma in Sprague-Dawley rat at 1 mg/kg, sc by LC-MS/MS analysis. It is filed as ADME, organism-based. The arrangement: dose 1 mg/kg, route subcutaneous.
Data set [9] deals with Nucleic Acid. The data set is described as follows: Ratio of drug level in cerebrospinal fluid to unbound plasma concentration in Sprague-Dawley rat at 1 mg/kg, sc by LC-MS/MS analysis. The following applies: in vivo. It is filed as ADME, organism-based. The arrangement: dose 1 mg/kg, route subcutaneous.
Data set [10] in a line: AUC(0 to 2 hrs) in Sprague-Dawley rat plasma at 1 mg/kg, sc by LC-MS/MS analysis. The arrangement: time < 2 hr, dose 1 mg/kg, route subcutaneous. It is filed as ADME, organism-based.
Data set [11] in a line: AUC(0 to 2 hrs) in Beagle dog plasma at 0.1 mg/kg, sc by LC-MS/MS analysis. It is filed as ADME, organism-based, Canis lupus familiaris. Set-up: time < 2 hr, dose 0.1 mg/kg, route subcutaneous.
The nature of data set [12]: AUC(0 to 2 hrs) in Sprague-Dawley rat brain at 1 mg/kg, sc by LC-MS/MS analysis. It is filed as ADME, organism-based. The arrangement: time < 2 hr, dose 1 mg/kg, route subcutaneous.
The nature of data set [13]: Ratio of unbound brain concentration to drug level in cerebrospinal fluid in Beagle dog at 0.1 mg/kg, sc by LC-MS/MS analysis. It is filed as ADME, organism-based, Canis lupus familiaris. The arrangement: dose 0.1 mg/kg, route subcutaneous. As to conditions: in vivo.
A short description of data set [14]: Unbound fraction in Beagle dog plasma at 0.1 mg/kg, sc by LC-MS/MS analysis. It is filed as ADME, organism-based, Canis lupus familiaris. Set-up: dose 0.1 mg/kg, route subcutaneous.
Data set [15] is described as follows: AUC(0 to 1 hr) in cynomolgus monkey cerebrospinal fluid at 0.1 mg/kg, sc by LC-MS/MS analysis. It is filed as ADME, organism-based, Macaca fascicularis. The arrangement: time < 1 hr, dose 0.1 mg/kg, route subcutaneous.
A short description of data set [16]: Unbound fraction in cynomolgus monkey plasma at 0.1 mg/kg, sc by LC-MS/MS analysis. It is filed as ADME, organism-based, Macaca fascicularis. The arrangement: dose 0.1 mg/kg, route subcutaneous.
The nature of data set [17]: AUC(0 to 2 hrs) in Beagle dog cerebrospinal fluid at 0.1 mg/kg, sc by LC-MS/MS analysis. It is filed as ADME, organism-based, Canis lupus familiaris. The arrangement: time < 2 hr, dose 0.1 mg/kg, route subcutaneous.
In data set [18] the test system is Nucleic Acid. The data set is described as follows: Ratio of drug level in cerebrospinal fluid to unbound plasma concentration in cynomolgus monkey at 0.1 mg/kg, sc by LC-MS/MS analysis. It is filed as ADME, organism-based, Macaca fascicularis. As to conditions: in vivo. Set-up: dose 0.1 mg/kg, route subcutaneous.
Data set [19] in a line: Ratio of drug level in brain to plasma in Sprague-Dawley rat at 1 mg/kg, sc by LC-MS/MS analysis. It is filed as ADME, organism-based. The arrangement: dose 1 mg/kg, route subcutaneous. As to conditions: read-out: BPR.
The nature of data set [20]: Ratio of unbound drug level in brain to plasma in cynomolgus monkey at 0.1 mg/kg, sc by LC-MS/MS analysis. Set-up: dose 0.1 mg/kg, route subcutaneous. The following applies: brain and plasma. It is filed as ADME, organism-based, Macaca fascicularis.
A short description of data set [21]: AUC(0 to 2 hrs) in Sprague-Dawley rat cerebrospinal fluid at 1 mg/kg, sc by LC-MS/MS analysis. It is filed as ADME, organism-based. Set-up: time < 2 hr, dose 1 mg/kg, route subcutaneous.
Data set [22] can be described thus: Unbound fraction in Beagle dog brain at 0.1 mg/kg, sc by LC-MS/MS analysis.
A short description of data set [23]: Unbound fraction in cynomolgus monkey brain at 0.1 mg/kg, sc by LC-MS/MS analysis. It is filed as ADME, organism-based, Macaca fascicularis. The arrangement: dose 0.1 mg/kg, route subcutaneous.
Data set [24] can be described thus: AUC(0 to infinity) in Sprague-Dawley rat cerebrospinal fluid at 1 mg/kg, sc by LC-MS/MS analysis. It is filed as ADME, organism-based. The arrangement: time infinity, dose 1 mg/kg, route subcutaneous.
A short description of data set [25]: Ratio of drug level in brain to plasma in Beagle dog at 0.1 mg/kg, sc by LC-MS/MS analysis. The following applies: brain and plasma, read-out: BPR. It is filed as ADME, organism-based, Canis lupus familiaris. The arrangement: dose 0.1 mg/kg, route subcutaneous.
A short description of data set [26]: Ratio of unbound brain concentration to drug level in cerebrospinal fluid in Sprague-Dawley rat at 1 mg/kg, sc by LC-MS/MS analysis. It is filed as ADME, organism-based. Set-up: dose 1 mg/kg, route subcutaneous. The following applies: in vivo.
The nature of data set [27]: Ratio of unbound brain concentration to drug level in cerebrospinal fluid in cynomolgus monkey at 0.1 mg/kg, sc by LC-MS/MS analysis. As to conditions: in vivo. Set-up: dose 0.1 mg/kg, route subcutaneous. It is filed as ADME, organism-based, Macaca fascicularis.
A short description of data set [28]: AUC(0 to infinity) in Sprague-Dawley rat plasma at 3 mg/kg, sc by LC-MS/MS analysis. It is filed as ADME, organism-based. The arrangement: time infinity, dose 3 mg/kg, route subcutaneous.
Data set [29] can be described thus: AUC(0 to 7 hrs) in Sprague-Dawley rat brain at 3 mg/kg, sc by LC-MS/MS analysis. Set-up: time < 7 hr, dose 3 mg/kg, route subcutaneous. It is filed as ADME, organism-based.
Data set [30] is described as follows: Ratio of drug level in brain to plasma in Sprague-Dawley rat at 3 mg/kg, sc by LC-MS/MS analysis. It is filed as ADME, organism-based. Set-up: dose 3 mg/kg, route subcutaneous. As to conditions: read-out: BPR.
The nature of data set [31]: Ratio of unbound drug level in brain to plasma in Sprague-Dawley rat at 3 mg/kg, sc by LC-MS/MS analysis. It is filed as ADME, organism-based. Set-up: dose 3 mg/kg, route subcutaneous.
Data set [32] is described as follows: Ratio of unbound brain concentration to drug level in cerebrospinal fluid in Sprague-Dawley rat at 3 mg/kg, sc by LC-MS/MS analysis. It is filed as ADME, organism-based. The arrangement: dose 3 mg/kg, route subcutaneous. The following applies: in vivo.
A short description of data set [33]: AUC(0 to 7 hrs) in Sprague-Dawley rat plasma at 3 mg/kg, sc by LC-MS/MS analysis. It is filed as ADME, organism-based. Set-up: time < 7 hr, dose 3 mg/kg, route subcutaneous.
In data set [34] the test system is Nucleic Acid. The data set can be described thus: Ratio of drug level in cerebrospinal fluid to unbound plasma concentration in Sprague-Dawley rat at 3 mg/kg, sc by LC-MS/MS analysis. As to conditions: in vivo. It is filed as ADME, organism-based. The arrangement: dose 3 mg/kg, route subcutaneous.
Data set [35] can be described thus: AUC(0 to 7 hrs) in Sprague-Dawley rat cerebrospinal fluid at 3 mg/kg, sc by LC-MS/MS analysis. It is filed as ADME, organism-based. The arrangement: time < 7 hr, dose 3 mg/kg, route subcutaneous.
Data set [36] can be described thus: AUC(0 to infinity) in Sprague-Dawley rat brain at 3 mg/kg, sc by LC-MS/MS analysis. It is filed as ADME, organism-based. The arrangement: dose 3 mg/kg, route subcutaneous, time infinity.
Data set [37] can be described thus: AUC(0 to infinity) in Sprague-Dawley rat cerebrospinal fluid at 3 mg/kg, sc by LC-MS/MS analysis. It is filed as ADME, organism-based. The arrangement: dose 3 mg/kg, route subcutaneous, time infinity.

On to `Cc1nc2n(c(=O)c1CCN1CCC(c3noc4cc(F)ccc34)CC1)CCCC2` [RISPERIDONE], for which the figures for the exposure AUC(0-t) at 1 h in [1], in data set [5] and in data set [15] were 22.6 ng·h/mL, 27.6 ng·h/mL and 1.14 ng·h/mL, respectively. Also, the AUC(0-t) at 2 h in data set [2] is 72 ng·h/mL; in data set [10], 409 ng·h/mL; in [11], 71.2 ng·h/mL; in data set [12] it was 108 ng·h/mL; in data set [17] it was 3.48 ng·h/mL; in data set [21], 11.3 ng·h/mL. The AUC(0-inf) in data set [3] turned out to be 441 ng·h/mL; in [7], 130 ng·h/mL; in data set [24], 11.9 ng·h/mL. The Kp in data set [4] is 0.82; in data set [19], 0.26; in data set [25], 1.01. The Kp uu in data set [6] is 0.99; in data set [8] it was 0.23; in data set [20], 0.89. In addition, the Ratio was 0.35 with Nucleic Acid [9]; 1.67 in data set [13]; 0.49 with Nucleic Acid [18]; 0.67 in data set [26]; 1.82 in data set [27]. In addition, the fraction unbound in [14] was 0.083; in [16], 0.084; in data set [22], 0.0809; in data set [23], 0.0919.

In the case of `CCN(CC)CCNC(=O)c1cc(Cl)c(N)cc1OC` [METOCLOPRAMIDE], the AUC(0-inf) in [28] worked out at 367 ng·h/mL; in [36], 635 ng·h/mL; in data set [37], 420 ng·h/mL. In addition, the AUC(0-t) at 7 h was 629 ng·h/mL in data set [29], 365 ng·h/mL in data set [33] and 418 ng·h/mL in [35]. Besides, in data set [30], the Kp came out at 1.72. Also, the Kp uu in data set [31] is 0.89. The Ratio in data set [32] is on record as 0.5; with Nucleic Acid [34], 1.8.

With `Nc1nc(O)c2ncn(COC(CO)CO)c2n1` [GANCICLOVIR], the AUC(0-inf) in [28] was 1720 ng·h/mL; in [36] it was 182 ng·h/mL; in [37], 82.5 ng·h/mL. The figures for the AUC(0-t) at 7 h in data set [29], in data set [33] and in [35] were 170 ng·h/mL, 1700 ng·h/mL and 78.4 ng·h/mL, respectively. Further, the Kp in [30] worked out at 0.1. In addition, in data set [31], the Kp uu stood at 0.09. The Ratio in data set [32] is 1.85; in the data set with Nucleic Acid [34], 0.05.
